Source: patent US11560360B2, “Therapeutic compounds” (ARIZONA BOARD OF REGENTS ON BEHALF OF ARIZONA STATE …, priority 2016, dated 2023)

Assays:
[1] = tested on: FRDA lymphocytes; experiment: Cytotoxicity assay in FRDA lymphocytes cultured in glucose free media (galactose), Live/Dead flow cytometry; format: cell-based; settings: FRDA lymphocytes, galactose as sole sugar source, 24 h or 48 h incubation (FIG. 2)
Protocol: Flow cytometric determination of cell viability by fluorescence labeling was used employing calcein acetoxy-methyl-ester and ethidium homodimer-1 as live and dead cell stains
Cytotoxicity was assessed by the dye exclusion method. Live cells have intact membranes, which exclude a variety of dyes that easily penetrate the damaged, permeable membranes of non-viable cells. Propidium iodide, a membrane impermeant dye, is generally excluded from viable cells, although it can enter non-viable cells and bind to double-stranded DNA by intercalating between base pairs. Compounds 1-5 were tested for their cytotoxicity in FRDA lymphocytes using FACS analysis with propidium iodide. The results are depicted in FIG. 2. From the results it is evident that cytotoxicity decreases with increasing lipophilicity in lower as well as higher concentrations for compounds 1-5.
Evaluation of compounds 1-5 for their cytotoxicity and their ability to function within the mitochondrial respiratory chain was carried out by incubation of the prepared compounds for 24 or 48 h with FRDA lymphocytes. A nutrient-sensitized screening strategy has been used by culturing FRDA cells in galactose as the sole sugar source which forces mammalian cells to rely on mitochondrial oxidative phosphorylation (OXPHOS) to produce their ATP; they also become more sensitive to mitochondrial respiratory chain inhibitors than cells grown in glucose medium. Compounds 1-5 were tested for their cytotoxicity in FRDA lymphocytes using a simultaneous staining with a two-color fluorescence assay, the Live/Dead® Viability/Cytotoxicity Kit (Molecular Probes). This assay is used to measure two recognized parameters of cell viability, intracellular esterase activity and plasma integrity. The membrane-impermeant DNA dye ethidium homodimer-1 (EthD-1) was used to identify dead cells whose plasma membrane integrity was disrupted. The membrane-permeant dye calcein-AM was used to label live cells. It penetrates into the cells where it is metabolized by cytoplasmic esterases and becomes a fluorescent but membrane-impermeant probe which is retained in viable cells. One mL of FRDA lymphocyte cells (5×10^5 cells) was plated in a 24-well plate in glucose free media (galactose 25 mM), treated with the test compounds and incubated at 37° C. for 24 h or 48 h in a humidified atmosphere containing 5% CO2 in air. Cells were collected by centrifugation at 300×g for 3 min and washed with phosphate buffered saline. […] The samples were analyzed immediately by flow cytometry (C6 Accuri, BD Biosciences, San Jose, Calif.), using a 488 nm excitation laser and the and the FL1-H channel 530±15 nm emission filter and the FL2-H channel 585±15 nm. For each analysis 10,000 events were recorded and analyzed using C6 Accuri software (BD Biosciences).

[2] = tested on: FRDA lymphocytes; experiment: Measurement of cellular ATP concentration (firefly luciferase); format: cell-based, human; settings: glucose free media (25 mM galactose), relative to untreated control (FIG. 6)
Protocol: Results are expressed as percentage of total ATP relative to untreated control.
ATP levels in FRDA lymphocytes were measured using firefly luciferase. The cells were grown on glucose-free media supplemented with galactose for 24 h prior to the addition of the test compounds. Since cells grown in galactose rely mostly on oxidative phosphorylation (OX-PHOS) to produce their ATP, they become more sensitive to mitochondrial respiratory chain inhibitors than cells grown in glucose medium.
Measurement of Cellular ATP Concentration
Total ATP levels in FRDA lymphocytes with or without partially blocking complex I activity with rotenone (5 nM) were measured using firefly luciferase as a means to measure ATP level. The cells were grown on glucose-free media supplemented with galactose. Since cells grown in galactose rely mostly on oxidative phosphorylation (OXPHOS) to produce their ATP, they become more sensitive to mitochondria respiratory chain inhibitors than cells grown in glucose medium. Briefly, lymphocytes (2×10^5 cell/mL) were plated (1 mL) in 24-well plates, treated with the test compounds, and then incubated at 37° C. for 48 h in a humidified atmosphere containing 5% CO2 in air. FRDA lymphocytes with partial inhibition of complex I, cells were preincubated with test compounds for overnight before rotenone (5 nM) treatment for 24 h. Cells in each well were mixed and transferred (100 μL) to 96-well microtiter black-walled cell culture plates (Costar, Corning, N.Y.). The total intracellular ATP level was measured in a luminator (Clarity™ luminescence microplate reader) using an ATP Bioluminescence Assay Kit (ViaLight®-Plus ATP monitoring reagent kit, Lonza) following the manufacturer's protocol. The total ATP level was expressed as a percentage of untreated control. Data are reported as the mean of at least three independent experiments.

[3] = tested on: FRDA fibroblasts (GM04078); experiment: Cytoprotection of BSO-treated FRDA fibroblasts, Live/Dead kit; format: cell-based, human; settings: overnight preincubation, then BSO (5 mM) 48 h (FIG. 7)
Protocol: Results obtained were verified by running triplicates and repeating experiments in two independent runs.
The ability of test compounds 1-5 to confer cytoprotection to buthionine sulfoximine (BSO)-treated FRDA fibroblasts from oxidative damage-induced death was determined by using simultaneous staining with a two-color fluorescence assay, the Live/Dead® Viability/Cytotoxicity Kit (Molecular Probes, Eugene, Oreg.). The cells were subjected to L-buthionine (S,R)-sulfoximine, an inhibitor of de novo glutathione (GSH) biosynthesis. Oxidative damage-induced death of FRDA fibroblasts was blocked by the test compounds in a concentration dependent manner (FIG. 7). […] The optimal side chain length was 15 carbon atoms.
The ability of the test compounds to confer cytoprotection to BSO-treated FRDA fibroblasts was determined by assessing plasma membrane integrity and intracellular esterase activity using the LIVE/DEAD Viability/Cytotoxicity Kit for mammalian cells according to the manufacturer's protocol. Briefly, FRDA fibroblasts (GM04078) were plated in 96-well microtiter plates at a density of 3000 cell/well (50 μL) (Costar, Corning, N.Y.). The plates were incubated at 37° C. for 24 h in an atmosphere having 95% humidity and 5% CO2 to allow attachment of the cells to the culture plates and to allow the cell density reach 50-60% confluency. The next day the test compounds were dissolved in DMSO, diluted to the appropriate concentrations in fresh cell culture media and the cells were then treated with the test compounds (final DMSO concentration was <0.5%). Plates were incubated at 37° C. overnight in a humidified atmosphere containing 5% CO2 in air. […] Fluorescence intensities were measured with a Spectramax M5 spectrofluorometer (Molecular Devices, Sunnyvale, Calif.) using excitation and emission wavelengths of 485 nm and 525 nm, respectively. […] The viability of non-BSO treated fibroblasts was set as 100%, and the viability of the BSO treated and sample-treated cells was calculated relative to this value. Cell viability was expressed as the percentage of control.

[4] = tested on: FRDA lymphocytes treated with rotenone (complex I inhibition); experiment: Cytoprotection of rotenone-treated FRDA lymphocytes; format: cell-based, human; settings: 12 h preincubation in glucose-free media, then rotenone (50 nM) 24 h or 48 h (FIG. 3)
[5] = tested on: FRDA lymphocyte cells (GM15850); experiment: Reactive oxygen species (ROS) assay, DCFH-DA, diethyl maleate-treated FRDA lymphocytes; format: cell-based, human; settings: 16 h pretreatment, 5 mM diethyl maleate 80 min, DCFH-DA (FIG. 5)
Protocol: The ability of compounds 1-5 to suppress ROS induced by the depletion of cellular glutathione was evaluated in FRDA lymphocytes in a quantitative FACS experiment using dichlorofluorescein diacetate (DCFH-DA) as an indicator of intracellular ROS levels. In cells DCFH-DA is hydrolyzed by esterases to afford 2, 7-dichlorodihydrofluorescein (DCFH). The non-fluorescent DCFH can be oxidized by cellular oxidants generating fluorescent dichlorofluorescein (DCF).
Reactive Oxygen Species (ROS) Assay
Intracellular ROS production was measured in FRDA lymphocyte cells (GM15850, Coriell Cell Repositories, Camden, N.J.) using the oxidant sensitive fluorescent probe 2,7-dichlorodihydrofluorescein diacetate (DCFH-DA) (Molecular Probes) as described previously. […] The samples were analyzed immediately by flow cytometry (C6 Accuri, BD Biosciences, San Jose, Calif.), using a 488 nm excitation laser and the FL1-H channel 530±15 nm emission filter for DCF and FL2-H channel 585±15 nm emission filter for propidium iodide. The generation of ROS, mainly peroxides, was detected as a result of the oxidation of DCFH. In each analysis, 10,000 events were recorded after dead cell and debris were gated out. […] ROS production was evaluated only in living cells which are propidium iodide negative. […] Results were expressed as percentage of ROS scavenging activity or as percentage of the median fluorescence intensity of DCF.

[6] = tested on: mitochondrial inner membrane potential in FRDA lymphocytes; experiment: JC-1 mitochondrial membrane potential (Δψm) assay; format: cell-based, human; settings: 16 h pre-treatment, JC-1, FACS (FIG. 4)
Protocol: In each analysis, 10000 events were recorded. Depolarization with carbonyl cyanide p-(trifluoromethoxy) phenylhydrazone (FCCP), was used to serve as a positive control.
The ability of 1-5 to maintain mitochondrial membrane potential (ΔΨm) compared to the parent compound MV was studied. ΔΨm was determined using the cationic fluorescent dye 5, 5′, 6, 6′-tetrachloro-1, 1′, 3, 3′-tetraethylbenzimidazolyl carbocyanine iodide (JC-1), which is a lipophilic cation that selectively accumulates in mitochondria due to the negative potential across the inner mitochondrial membrane. The dye exists as a monomer at low concentrations giving a green fluorescence. […] Therefore, mitochondrial depolarization is indicated by a decrease in red/green fluorescence ratio. […]
The ability of the test compounds to depolarize or maintains mitochondrial inner membrane potential (Δψm) was assessed using the JC-1 probe. […] JC-1 is a dual stain, which can identify high membrane potential through J-aggregates (red fluorescence) and low membrane potential through J-monomers (green fluorescence). […] Cells were resuspended in phosphate buffered saline supplemented with 20 mM glucose and were analyzed immediately by FACS (C6 Accuri, BD Biosciences, San Jose, Calif.), using a 488 nm excitation laser and the FL1-H channel 530±15 nm emission filter and the FL2-H channel 585±15 nm. […]

SMILES | cytotoxicity [1] | cellular ATP levels [2] | cytoprotection from oxidative damage-induced death [3] | cytoprotection against rotenone cytotoxicity [4] | suppression of ROS induced by depletion of cellular glutathione [5] | preservation of mitochondrial membrane potential (Δψm) [6]
CCCCN(CCCC)c1ccc2nc3ccc(=O)cc-3sc2c1 [Compound 1, 7-(N,N-Dibutylamino)-3H-phenothiazin-3-one] | somewhat cytotoxic | reduces cellular ATP levels in all concentrations |  |  |  | 
CCCCCCCCCCN(CCCCCCCCCC)c1ccc2nc3ccc(=O)cc-3sc2c1 [Compound 2, 7-(N,N-Didecylamino)-3H-phenothiazin-3-one] | somewhat cytotoxic | reduces cellular ATP levels in all concentrations |  |  |  | 
CCCCCCCCCCCCCCCN(CCCCCCCCCCCCCCC)c1ccc2nc3ccc(=O)cc-3sc2c1 [Compound 3, 7-(N,N-Dipentadecylamino)-3H-phenothiazin-3-one] |  |  | the least effective |  |  | 
CCCCCCCCCCCCCCCN(C)c1ccc2nc3ccc(=O)cc-3sc2c1 [Compound 4, 7-(N-Methyl-N-pentadecylamino)-3H-phenothiazin-3-one] |  |  | better potency than 1 or 2 | protect the cells against rotenone cytotoxicity more efficiently than the parent compound MV | more potent and effective in protecting FRDA lymphocytes than the parent compound MV | 
CCCCCCCCCCCCCCCN(CCCC)c1ccc2nc3ccc(=O)cc-3sc2c1 [Compound 5, 7-(N-Butyl-N-pentadecylamino)-3H-phenothiazin-3-one] |  |  | better potency than 1 or 2 | protect the cells against rotenone cytotoxicity more efficiently than the parent compound MV | more potent and effective in protecting FRDA lymphocytes than the parent compound MV | 
CN(C)c1ccc2nc3ccc(=O)cc-3sc2c1 [MV, Methylene violet, reference compound] |  | strongly reduces cellular ATP levels in a concentration dependent manner |  |  |  | significantly depolarized Δψm
